{
  "source": "patent US20100292345A1",
  "about": "“THERAPEUTIC USES OF CANNABIGEROL” (GW PHARMA LIMITED, priority 2007, published 2010)",
  "key": {"[1]": {"test_system": "CB1 receptors in mouse brain tissue", "assay": "[35S]GTPγS binding assay, mouse brain membranes", "assay_type": "biochemical", "settings": "conclusion from the example data", "description": "(§1) Whole mouse brain membranes were prepared as described by Thomas et al., 2004. CHO cells were stably transfected with cDNA encoding human cannabinoid CB2 receptors and were maintained at 37° C. and 5% CO2 in Dulbecco's Modified Eagle's Medium nutrient mixture.\nThe assays were carried out with GTPγS binding buffer (50 mM Tris-HCl; 50 mM Tris-Base; 5 mM MgCl2; 1 mM EDTA; 100 mM NaCl; 1 mM DTT; 0.1% BSA) in the presence of [^35S]GTPγS and GDP, in a final volume of 500 μl. Binding was initiated by the addition of [^35S]GTPγS to the tubes. The drugs were incubated in the assay for 60 min at 30° C. The reaction was terminated by a rapid vacuum filtration method using Tris buffer (50 mM Tris-HCl; 50 mM Tris-Base; 0.1% BSA), as described previously, and the radioactivity was quantified by liquid scintillation spectrometry.\nThe agonism of the CB1 or CB2 receptors by CP55940 results in a response in the cell. This response is the binding of [^35S]GTPγS to the cell membrane.\nChanges in the response in the presence of the test compound can be measured in order to determine whether the compound is acting as an agonist, a neutral antagonist or an inverse agonist. An agonist will increase the response, a neutral antagonist will have no effect on the response and an inverse agonist will stop or reverse the response. […]"}, "[2]": {"biological_target": "T1, human cannabinoid CB2 receptors (Homo sapiens, UniProt P34972)", "T1 construct": "expressed in transfected cells; host or cells: CHO cells, stably transfected", "T1 sequence (P34972 whole entry)": "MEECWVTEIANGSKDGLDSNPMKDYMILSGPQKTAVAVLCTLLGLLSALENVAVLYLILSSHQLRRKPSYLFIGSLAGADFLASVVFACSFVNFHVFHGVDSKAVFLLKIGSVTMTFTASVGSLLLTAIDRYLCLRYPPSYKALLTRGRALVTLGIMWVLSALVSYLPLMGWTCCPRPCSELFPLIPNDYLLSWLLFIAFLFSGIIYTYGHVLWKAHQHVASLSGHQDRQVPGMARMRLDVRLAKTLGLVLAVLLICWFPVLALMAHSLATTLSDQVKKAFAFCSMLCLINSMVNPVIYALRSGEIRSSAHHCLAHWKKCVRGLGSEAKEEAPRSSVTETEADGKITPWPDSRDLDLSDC", "assay": "[3H]CP55940 radioligand displacement assay, hCB2-CHO cell membranes", "settings": "membranes prepared from hCB2-CHO cells; 37° C., 60 min; read-out: Ki, displacement of [3H]CP55940 from specific binding sites", "description": "as §1\n(§2) The assays were carried out with the established CB1 and CB2 cannabinoid receptor agonist CP55940. This was radiolabelled to form [^3H]CP55940.\n(§3) Binding of the radiolabelled compound was initiated by the addition of either the brain membranes (33 μg protein per tube) or the transfected hCB2 cells (25 μg protein per tube).\n(§4) All assays were performed at 37° C. for 60 min before termination by addition of ice-cold wash buffer (50 mM Tris buffer, 1 mg ml^−1 bovine serum albumin, pH 7.4) and vacuum filtration using a 24-well sampling manifold and GF/B filters that had been soaked in wash buffer at 4° C. for at least 24 h.\n(§5) The test compounds were also tested to determine whether they were able to displace the agonist CP55940 from the binding site of the CB1 or CB2 receptor. The Ki-value that resulted from this investigation gives an insight into how strongly the test compound competes with the agonist for the binding site."}, "[3]": {"biological_target": "T1, human cannabinoid CB2 receptors", "assay": "Inhibition of forskolin-stimulated cyclic AMP production in hCB2-CHO cells", "assay_type": "cell-based", "set-up": "Emax, inhibition of forskolin-stimulated cyclic AMP production: unit not given here"}, "[4]": {"biological_target": "T2, CB1 receptors in mouse brain tissue (Mus musculus, UniProt P47746)", "T2 construct": "Whole mouse brain membranes were prepared as described by Thomas et al., 2004; from tissue; host or cells: whole mouse brain membranes", "T2 sequence (P47746 whole entry)": "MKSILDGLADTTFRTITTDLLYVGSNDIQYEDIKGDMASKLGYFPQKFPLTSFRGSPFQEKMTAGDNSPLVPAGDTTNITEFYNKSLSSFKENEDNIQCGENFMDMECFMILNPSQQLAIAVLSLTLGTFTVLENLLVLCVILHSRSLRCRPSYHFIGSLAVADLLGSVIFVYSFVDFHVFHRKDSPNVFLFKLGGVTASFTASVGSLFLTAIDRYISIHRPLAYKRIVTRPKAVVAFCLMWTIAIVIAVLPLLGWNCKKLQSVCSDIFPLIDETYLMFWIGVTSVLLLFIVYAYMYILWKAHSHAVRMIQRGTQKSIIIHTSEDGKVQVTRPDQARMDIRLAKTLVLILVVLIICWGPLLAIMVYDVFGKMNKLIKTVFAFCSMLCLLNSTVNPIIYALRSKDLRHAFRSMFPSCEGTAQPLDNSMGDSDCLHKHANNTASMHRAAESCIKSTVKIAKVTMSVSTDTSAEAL", "assay": "[3H]CP55940 radioligand displacement assay, mouse whole brain membranes", "assay_type": "binding", "description": "as §1, §2, §3, §4, §5"}},
  "data": [
    {"smiles": "CCCCCc1cc(O)c(C/C=C(\\C)CCC=C(C)C)c(O)c1", "note": "[CBG, cannabigerol]", "values": [
      {"measurement": "functional character at CB1 receptor", "setting": "[1]", "result": "partial agonist"},
      {"measurement": "Ki", "setting": "[2]", "result": 337, "unit": "nM"},
      {"measurement": "functional character at CB2 receptor", "setting": "[3]; conclusion from the example data", "result": "partial agonist"},
      {"measurement": "EC50", "setting": "[3]; hCB2-CHO cells, 5 μM forskolin", "result": 388, "unit": "nM"},
      {"measurement": "Emax, inhibition of forskolin-stimulated cyclic AMP production", "setting": "[3]; hCB2-CHO cells, 5 μM forskolin", "result": 28.3},
      {"measurement": "efficacy relative to CP55940 in inhibiting forskolin-stimulated cyclic AMP production", "setting": "[3]; hCB2-CHO cells, 5 μM forskolin, submicromolar concentrations", "result": "efficacy less than that of CP55940"},
      {"measurement": "Ki", "setting": "[4]", "result": 439, "unit": "nM"}
    ]}
  ]
}
